From PubChem BioAssay (NCI)
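Dose response: 5 concentrations. Exposure: 48 h. Format: 96-well plates. Endpoint: linear interpolation; highest concentration if not reached. Here, GI50 denotes the concentration required for 50% inhibition of growth. TGI: concentration producing complete growth inhibition.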

What was measured:
Assay in all cases: DTP human tumour cell line panel, 48 h
[1] = test system: 786-0 renal
[2] = test system: A498 renal
[3] = test system: A549 NSCLC
[4] = test system: ACHN renal
[5] = test system: BT-549 breast
[6] = test system: CAKI-1 renal
[7] = test system: COLO 205 colon
[8] = test system: DU-145 prostate
[9] = test system: HCC-2998 colon
[10] = test system: HCT-116 colon
[11] = test system: HCT-15 colon
[12] = test system: HL-60(TB) leukemia
[13] = test system: HOP-62 NSCLC
[14] = test system: HOP-92 NSCLC
[15] = test system: HS 578T breast
[16] = test system: HT29 colon
[17] = test system: IGROV1 ovarian
[18] = test system: K-562 leukemia
[19] = test system: KM12 colon
[20] = test system: M14 melanoma
[21] = test system: MALME-3M melanoma
[22] = test system: MCF7 breast
[23] = test system: MDA-MB-231 breast
[24] = test system: MDA-MB-435
[25] = test system: MOLT-4 leukemia
[26] = test system: NCI-H226 lung
[27] = test system: NCI-H23 lung
[28] = test system: NCI-H460 lung

Structure (SMILES): COc1c(Cl)ccc2c(-c3nc4cc(Cl)c(F)cc4s3)cc(=O)oc12
- GI50 [1]: 2.64 µM
- TGI [1]: 5.65 µM
- GI50 [2]: 17.6 µM
- TGI [2]: 36 µM
- GI50 [3]: 17.9 µM
- TGI [3]: > 100 µM
- GI50 [4]: 4 µM
- TGI [4]: 17.2 µM
- GI50 [5]: 7.58 µM
- TGI [5]: 37.5 µM
- GI50 [6]: 1.98 µM
- GI50 [7]: 10.1 µM
- TGI [7]: 38.3 µM
- GI50 [8]: 13.9 µM
- TGI [8]: 39.9 µM
- GI50 [9]: 38.5 µM
- TGI [9]: > 100 µM
- GI50 [10]: 14.1 µM
- TGI [10]: > 61.6 µM
- GI50 [11]: 11.7 µM
- TGI [11]: 51 µM
- GI50 [12]: 2.44 µM
- TGI [12]: 5.39 µM
- GI50 [13]: 6.26 µM
- TGI [13]: 20.7 µM
- GI50 [14]: 1.77 µM
- TGI [14]: 4.07 µM
- GI50 [15]: 26.8 µM
- TGI [15]: > 100 µM
- GI50 [16]: 2.76 µM
- TGI [16]: 6.54 µM
- GI50 [17]: 1.68 µM
- TGI [17]: 3.97 µM
- GI50 [18]: 5.42 µM
- TGI [18]: > 100 µM
- GI50 [19]: 4.06 µM
- TGI [19]: 22.1 µM
- GI50 [20]: 26.7 µM
- TGI [20]: > 100 µM
- GI50 [21]: 2.11 µM
- TGI [21]: 4.73 µM
- GI50 [22]: 9.13 µM
- TGI [22]: > 79 µM
- GI50 [23]: 2.84 µM
- TGI [23]: 11.2 µM
- GI50 [24]: 25 µM
- TGI [24]: > 66.1 µM
- GI50 [25]: 4.1 µM
- TGI [25]: > 100 µM
- GI50 [26]: 11.7 µM
- TGI [26]: > 69.3 µM
- GI50 [27]: 3.25 µM
- TGI [27]: > 73.7 µM
- GI50 [28]: 33.2 µM
